For one compound, Activity, IC50 and Ki results are on record in ChEMBL document CHEMBL1131849, “Synthesis and biological characterization of sqbazide, a novel biotinylated photoaffinity probe for the study of the human platelet thromboxane A2 receptor” (Bioorg Med Chem Lett, 1999).

Active and inactive are the calls of the source. No cut-off for these calls is given here.

For test [1], the species on record is Homo sapiens. The experiment in a line: Tested for inhibition of platelet aggregation induced by A-23187; Inactive. It is filed as functional, organism-based.
Test [2] is filed under the species Homo sapiens. The experiment in a line: Tested for inhibition of platelet aggregation induced by ADP; Inactive. The class given is functional, organism-based.
The species entered for test [3] is Homo sapiens. The experiment in a line: Inhibitory activity against human platelet aggregation. The class given is functional, organism-based.
A further test has as its target T1, Thromboxane A2 receptor (Homo sapiens, UniProt P21731).
T1 sequence (P21731 whole entry): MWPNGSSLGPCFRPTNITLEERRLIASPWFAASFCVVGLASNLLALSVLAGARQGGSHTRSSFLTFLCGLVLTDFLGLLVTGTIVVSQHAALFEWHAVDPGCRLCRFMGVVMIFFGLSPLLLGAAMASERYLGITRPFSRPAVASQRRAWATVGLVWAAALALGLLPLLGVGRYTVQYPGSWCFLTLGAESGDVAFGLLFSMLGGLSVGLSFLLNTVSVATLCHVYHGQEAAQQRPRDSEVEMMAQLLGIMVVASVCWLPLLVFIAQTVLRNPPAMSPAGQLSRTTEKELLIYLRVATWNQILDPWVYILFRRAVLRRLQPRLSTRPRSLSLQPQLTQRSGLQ
Description: Binding affinity to human platelet TXA2 receptors as ability to displace binding [3H]SQ-29,548.

`[N-]=[N+]=Nc1ccc(CCCC(=O)NCC(=O)NCC2C3CCC(O3)C2C/C=C\CCCC(=O)NNC(=O)CCCC[C@H]2SC[C@H]3NC(=O)N[C@H]32)cc1` (some centres undefined): the outcome in the test listed under Homo sapiens [1] and in the test listed under Homo sapiens [2] was inactive. In addition, inhibition in the test listed under Homo sapiens [3] was half-maximal at 500 nM (IC50). This compound also came in with a Ki at Thromboxane A2 receptor of 625 nM.

The IC50 is the concentration that inhibits the measured activity by half. For orientation: Ki means a measure of affinity in units of concentration, obtained from inhibition or displacement. Low readings indicate tighter binding, high ones weaker binding.
